Measured values taken from patent publication US12344600B2, “c-Myc mRNA translation modulators and uses thereof in the treatment of cancer” (Anima Biotech Inc., priority 2022, dated 2025).

system: c-Myc; assay: c-Myc immunofluorescence assay; type: cell-based, human; details: A549 cells, 24 hours, anti-c-Myc immunofluorescence
Summary of the method: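 A549 NSCLC cells grown 48 h, then treated 24 h with increasing compound concentrations; fixed in 4% paraformaldehyde, stained with anti-c-Myc antibody plus fluorescent secondary and DAPI. Per-cell c-Myc fluorescence quantified by high-content imaging at 20×; dose-response fitted by logistic regression to give EC50.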

Row | Structure (SMILES) | Myc Efficacy (−LogEC50)
1 | COc1ccc(-c2noc(N3CCC(C(=O)NCC4CCN(Cc5cc(C)co5)C4)CC3)n2)cc1 (centres unmarked) [Compound 382, 1-(3-(4-methoxyphenyl)-1,2,4-oxadiazol-5-yl)-N-((1-((4-methylfuran-2-yl)methyl)pyrrolidin-3-yl)methyl)piperidine-4-carboxamide] | ++ (++ ≥5 and <6)
2 | COc1ccc(-c2noc(N3CCC(C(=O)NCC4CCN(Cc5csc(C)n5)C4)CC3)n2)cc1 (centres unmarked) [Compound 383, 1-(3-(4-methoxyphenyl)-1,2,4-oxadiazol-5-yl)-N-((1-((2-methylthiazol-4-yl)methyl)pyrrolidin-3-yl)methyl)piperidine-4-carboxamide] | ++ (++ ≥5 and <6)
3 | COc1ccc(-c2noc(N3CCC(C(=O)NCC4CCN(Cc5nc(C)cs5)C4)CC3)n2)cc1 (centres unmarked) [Compound 384, 1-(3-(4-methoxyphenyl)-1,2,4-oxadiazol-5-yl)-N-((1-((4-methylthiazol-2-yl)methyl)pyrrolidin-3-yl)methyl)piperidine-4-carboxamide] | ++ (++ ≥5 and <6)
4 | COc1ccc(-c2noc(N3CCC(C(=O)NCC4CCN(Cc5ccc(C)s5)C4)CC3)n2)cc1 (centres unmarked) [Compound 385, 1-(3-(4-methoxyphenyl)-1,2,4-oxadiazol-5-yl)-N-((1-((5-methylthiophen-2-yl)methyl)pyrrolidin-3-yl)methyl)piperidine-4-carboxamide] | ++ (++ ≥5 and <6)
5 | CCCN1CCC(CNC(=O)C2CCN(c3nc(-c4ccc(OC)cc4)no3)CC2)C1 (centres unmarked) [Compound 386, 1-(3-(4-methoxyphenyl)-1,2,4-oxadiazol-5-yl)-N-((1-propylpyrrolidin-3-yl)methyl)piperidine-4-carboxamide] | + (+ >3 and <5)
6 | COc1ccc(-c2noc(N3CCC(C(=O)NCC4CCN(Cc5cccc(C)n5)C4)CC3)n2)cc1 (centres unmarked) [Compound 387, 1-(3-(4-methoxyphenyl)-1,2,4-oxadiazol-5-yl)-N-((1-((6-methylpyridin-2-yl)methyl)pyrrolidin-3-yl)methyl)piperidine-4-carboxamide] | ++ (++ ≥5 and <6)
7 | COc1ccc(-c2noc(N3CCC(C(=O)NCC4CCN(Cc5cnc(C)s5)C4)CC3)n2)cc1 (centres unmarked) [Compound 388, 1-(3-(4-methoxyphenyl)-1,2,4-oxadiazol-5-yl)-N-((1-((2-methylthiazol-5-yl)methyl)pyrrolidin-3-yl)methyl)piperidine-4-carboxamide] | ++ (++ ≥5 and <6)
8 | COc1ccc(-c2noc(N3CCC(C(=O)NCC4CCN(Cc5ccc[nH]5)C4)CC3)n2)cc1 (centres unmarked) [Compound 389, N-((1-((1H-pyrrol-2-yl)methyl)pyrrolidin-3-yl)methyl)-1-(3-(4-methoxyphenyl)-1,2,4-oxadiazol-5-yl)piperidine-4-carboxamide] | ++ (++ ≥5 and <6)
9 | COc1ccc(-c2noc(N3CCC(C(=O)NCC4CCN(Cc5cccc(O)c5)C4)CC3)n2)cc1 (centres unmarked) [Compound 390, N-((1-(3-hydroxybenzyl)pyrrolidin-3-yl)methyl)-1-(3-(4-methoxyphenyl)-1,2,4-oxadiazol-5-yl)piperidine-4-carboxamide] | ++ (++ ≥5 and <6)
10 | COc1ccc(-c2noc(N3CCC(C(=O)NCC4CCN(CC5CCCNCC5)C4)CC3)n2)cc1 (centres unmarked) [Compound 391, N-((1-(azepan-4-ylmethyl)pyrrolidin-3-yl)methyl)-1-(3-(4-methoxyphenyl)-1,2,4-oxadiazol-5-yl)piperidine-4-carboxamide] | + (+ >3 and <5)
11 | COc1ccc(-c2noc(N3CCC(C(=O)NCC4CCN(C[C@@H]5CCCN5)C4)CC3)n2)cc1 (stereo partly drawn) [Compound 392, 1-(3-(4-methoxyphenyl)-1,2,4-oxadiazol-5-yl)-N-((1-(((S)-pyrrolidin-2-yl)methyl)pyrrolidin-3-yl)methyl)piperidine-4-carboxamide] | + (+ >3 and <5)
12 | COc1ccc(-c2noc(N3CCC(C(=O)NCC4CCN(CC5CC(F)(F)C5)C4)CC3)n2)cc1 (centres unmarked) [Compound 393, N-((1-((3,3-difluorocyclobutyl)methyl)pyrrolidin-3-yl)methyl)-1-(3-(4-methoxyphenyl)-1,2,4-oxadiazol-5-yl)piperidine-4-carboxamide] | + (+ >3 and <5)
13 | COc1ccc(-c2noc(N3CCC(C(=O)NCC4CCN(CC5CC(N)C5)C4)CC3)n2)cc1 (centres unmarked) [Compound 394, N-((1-(((1s,3s)-3-aminocyclobutyl)methyl)pyrrolidin-3-yl)methyl)-1-(3-(4-methoxyphenyl)-1,2,4-oxadiazol-5-yl)piperidine-4-carboxamide] | + (+ >3 and <5)
14 | COc1ccc(-c2noc(N3CCC(C(=O)NCC4CCN(CC5CCO5)C4)CC3)n2)cc1 (centres unmarked) [Compound 395, 1-(3-(4-methoxyphenyl)-1,2,4-oxadiazol-5-yl)-N-((1-(oxetan-2-ylmethyl)pyrrolidin-3-yl)methyl)piperidine-4-carboxamide] | + (+ >3 and <5)
15 | COc1ccc(-c2noc(N3CCC(C(=O)NCC4CCN(C5CCCOC5)C4)CC3)n2)cc1 (centres unmarked) [Compound 396, 1-(3-(4-methoxyphenyl)-1,2,4-oxadiazol-5-yl)-N-((1-(tetrahydro-2H-pyran-3-yl)pyrrolidin-3-yl)methyl)piperidine-4-carboxamide] | + (+ >3 and <5)
16 | COc1ccc(-c2noc(N3CCC(C(=O)NCC4CCN(C(C)CO)C4)CC3)n2)cc1 (centres unmarked) [Compound 397, N-((1-(1-hydroxypropan-2-yl)pyrrolidin-3-yl)methyl)-1-(3-(4-methoxyphenyl)-1,2,4-oxadiazol-5-yl)piperidine-4-carboxamide] | − (− ≤3)
17 | COc1ccc(-c2noc(N3CCC(C(=O)NCC4CCN(C5CCOCC5)C4)CC3)n2)cc1 (centres unmarked) [Compound 398, 1-(3-(4-methoxyphenyl)-1,2,4-oxadiazol-5-yl)-N-((1-(tetrahydro-2H-pyran-4-yl)pyrrolidin-3-yl)methyl)piperidine-4-carboxamide] | + (+ >3 and <5)
18 | COc1ccc(-c2noc(N3CCC(C(=O)NCC4CCN(C5CC6(COC6)C5)C4)CC3)n2)cc1 (centres unmarked) [Compound 399, N-((1-(2-oxaspiro[3.3]heptan-6-yl)pyrrolidin-3-yl)methyl)-1-(3-(4-methoxyphenyl)-1,2,4-oxadiazol-5-yl)piperidine-4-carboxamide] | + (+ >3 and <5)
19 | COc1ccc(-c2noc(N3CCC(C(=O)NCC4CCN(C5CCCOCC5)C4)CC3)n2)cc1 (centres unmarked) [Compound 400, 1-(3-(4-methoxyphenyl)-1,2,4-oxadiazol-5-yl)-N-((1-(oxepan-4-yl)pyrrolidin-3-yl)methyl)piperidine-4-carboxamide] | + (+ >3 and <5)
20 | COc1ccc(-c2noc(N3CCC(C(=O)NCC4CCN(C5COC5)C4)CC3)n2)cc1 (centres unmarked) [Compound 401, 1-(3-(4-methoxyphenyl)-1,2,4-oxadiazol-5-yl)-N-((1-(oxetan-3-yl)pyrrolidin-3-yl)methyl)piperidine-4-carboxamide] | + (+ >3 and <5)
21 | COc1ccc(-c2noc(N3CCC(C(=O)NCC4CCN(C5CCOC(C)C5)C4)CC3)n2)cc1 (centres unmarked) [Compound 402, 1-(3-(4-methoxyphenyl)-1,2,4-oxadiazol-5-yl)-N-((1-(2-methyltetrahydro-2H-pyran-4-yl)pyrrolidin-3-yl)methyl)piperidine-4-carboxamide] | + (+ >3 and <5)
22 | COc1ccc(-c2noc(N3CCC(C(=O)Nc4ccc5c(c4)CCN5C)CC3)n2)cc1 [Compound 403, 1-(3-(4-methoxyphenyl)-1,2,4-oxadiazol-5-yl)-N-(1-methylindolin-5-yl)piperidine-4-carboxamide] | + (+ >3 and <5)
23 | COc1ccc(-c2noc(N3CCC(C(=O)NCC4CCN(Cc5scnc5C)C4)CC3)n2)cc1 (centres unmarked) [Compound 404, 1-(3-(4-methoxyphenyl)-1,2,4-oxadiazol-5-yl)-N-((1-((4-methylthiazol-5-yl)methyl)pyrrolidin-3-yl)methyl)piperidine-4-carboxamide] | ++ (++ ≥5 and <6)
24 | COc1ccc(-c2noc(N3CCC(C(=O)NCC4CCN(CC5CCCO5)C4)CC3)n2)cc1 (centres unmarked) [Compound 405, 1-(3-(4-methoxyphenyl)-1,2,4-oxadiazol-5-yl)-N-((1-((tetrahydrofuran-2-yl)methyl)pyrrolidin-3-yl)methyl)piperidine-4-carboxamide] | + (+ >3 and <5)
25 | COc1ccc(-c2noc(N3CCC(C(=O)NCC4CCN(Cc5occc5C)C4)CC3)n2)cc1 (centres unmarked) [Compound 406, 1-(3-(4-methoxyphenyl)-1,2,4-oxadiazol-5-yl)-N-((1-((3-methylfuran-2-yl)methyl)pyrrolidin-3-yl)methyl)piperidine-4-carboxamide] | + (+ >3 and <5)
26 | COc1ccc(-c2noc(N3CCC(C(=O)NCC4CCN(Cc5ncc(C)s5)C4)CC3)n2)cc1 (centres unmarked) [Compound 407, 1-(3-(4-methoxyphenyl)-1,2,4-oxadiazol-5-yl)-N-((1-((5-methylthiazol-2-yl)methyl)pyrrolidin-3-yl)methyl)piperidine-4-carboxamide] | ++ (++ ≥5 and <6)
27 | COc1ccc(-c2noc(N3CCC(C(=O)NCC4CCN(CC5COC5)C4)CC3)n2)cc1 (centres unmarked) [Compound 408, 1-(3-(4-methoxyphenyl)-1,2,4-oxadiazol-5-yl)-N-((1-(oxetan-3-ylmethyl)pyrrolidin-3-yl)methyl)piperidine-4-carboxamide] | + (+ >3 and <5)
28 | COc1ccc(-c2noc(N3CCC(C(=O)NCC4CCN(CC5=CCCCC5)C4)CC3)n2)cc1 (centres unmarked) [Compound 409, N-((1-(cyclohex-1-en-1-ylmethyl)pyrrolidin-3-yl)methyl)-1-(3-(4-methoxyphenyl)-1,2,4-oxadiazol-5-yl)piperidine-4-carboxamide] | ++ (++ ≥5 and <6)
29 | COc1ccc(-c2noc(N3CCC(C(=O)NCC4CCN(CC=C(C)C)C4)CC3)n2)cc1 (centres unmarked) [Compound 410, 1-(3-(4-methoxyphenyl)-1,2,4-oxadiazol-5-yl)-N-((1-(3-methylbut-2-en-1-yl)pyrrolidin-3-yl)methyl)piperidine-4-carboxamide] | ++ (++ ≥5 and <6)
